Source: US8946264B2, “Pyridine derivative” (Daiichi Sankyo Company, Limited, priority 2009, dated 2015)

Key:
KK mice = assay: Hypoglycemic effect (glucose lowering rate) in diabetic KK mice; assay type: in vivo; details: male KK mice, diet admixture containing 0.03% of the compound, three days, plasma glucose on the 3rd day vs control group; for inhibition in vivo at 0.03 % in diet: Mus musculus, po, 72 h
From the text: Six-week-old male KK mice were purchased from CLEA Japan, Inc. and then were fed until 15 to 20 weeks old to develop diabetes. The mice were individually fed during the adaptation period and the test period, and water and feed (FR2, Funabashi Farm) were freely ingested.
At the start of the experiment, after body weight measurement, blood was collected from the tail vein of the mice into a heparin-coated glass tube and centrifuged, and then plasma was separated. The glucose level in the plasma was measured by Glucoloader GXT (A&T Corp.), and individuals having a plasma glucose level of about 350 mg/dl or more were selected. The mice were grouped, each group having 3 to 4 mice, to make the average body weight and the average plasma glucose level similar. Each compound was administered to a compound group with a diet admixture containing 0.03% of the compound. A separate group in which the mice were fed only with diet was a control group.
The experiment period (drug administration period) was three days. The grouping day was the 0th day. On the 3rd day, the body weight was measured and blood was collected from the tail vein to measure the plasma glucose level.
The glucose lowering rate was determined by the following formula. Glucose lowering rate=[(Control group plasma glucose level−Compound-administered group plasma glucose level)/Control group plasma glucose level]×100

[1] = molecular target: T1, GAL4-PPARγ chimeric receptor (Homo sapiens, UniProt P37231); assay: PPARγ activation effect/modulator activity, GAL4-PPARγ luciferase reporter assay in COS-7 cells; assay type: cell-based; details: for Emax: COS-7, maximum luciferase activity, positive control rosiglitazone = 100%, DMSO control = 0%
T1 construct: expressed in transfected cells; host or cells: COS-7 (monkey kidney-derived cell line)
Procedure: A test was carried out according to the reporter assay method with reference to a report by Kliewer et al. (Journal of Biological Chemistry, 1995, Vol. 270 (22), p. 12953-12956) as a method for measuring the ability of a compound to activate PPARγ (hereinafter PPARγ activation effect/modulator activity). Commercially available reagents and kits were used according to the attached instructions. The details will be shown below. The ligand-binding domain of human PPARγ (corresponding to about 300 amino acids at the carboxy end) was bound to the DNA-binding domain of the yeast transcription factor GAL4 (corresponding to 147 amino acids at the amino end) with reference to the report by Kliewer et al. to prepare a gene expressing a GAL4-PPARγ receptor. The plasmid pM-PPARγ obtained by the above operation includes the nucleotide sequence represented by SEQ ID NO: 4 of the Sequence Listing and encodes an amino acid sequence represented by SEQ ID NO: 5 of the Sequence Listing containing amino acids 1 to 147 of the yeast transcription factor GAL4 at the amino end and containing amino acids 175 to 475 of human PPARγ and a stop codon at the carboxy end. The plasmid is a gene that can express a GAL4-PPARγ chimeric receptor in mammalian cells. The previously acquired plasmid pM-PPARγ and the plasmid pFR-Luc purchased from Stratagene Cloning Systems, Inc. were dissolved in deionised water at a concentration of 1 mg/mL each. […] COS-7 cells were transfected with 4.8 micrograms per flask of the plasmid pM-PPARγ and 19.2 μg per flask of the plasmid pFR-Luc using Lipofectamine 2000 transfection reagent (manufactured by Invitrogen Corporation), and the cells were cultured overnight. […] The test compound was dissolved in dimethyl sulfoxide at a concentration of 4 mM. The solution was serially diluted 3.3-fold with dimethyl sulfoxide to prepare solutions of the compound at concentrations up to 400 nM. Dimethyl sulfoxide was prepared for the control group. Rosiglitazone dissolved in dimethyl sulfoxide at a concentration of 4 mM was prepared for the positive control group. They were diluted 20-fold with the medium, and 5 μL of the dilution was added to the wells in which the cells were grown. […] After the addition, the cells were cultured overnight. On the following day, the medium was removed, and Luc Lite (manufactured by PerkinElmer Inc.) was prepared according to the attached document and added at 50 microliters per well. […] The amount of luminescence in each well was measured as luciferase activity using Analyst (Molecular Devices) for 0.5 second. A dose-dependent curve was drawn.

T1 sequence (P37231 with tags, fused parts or gaps): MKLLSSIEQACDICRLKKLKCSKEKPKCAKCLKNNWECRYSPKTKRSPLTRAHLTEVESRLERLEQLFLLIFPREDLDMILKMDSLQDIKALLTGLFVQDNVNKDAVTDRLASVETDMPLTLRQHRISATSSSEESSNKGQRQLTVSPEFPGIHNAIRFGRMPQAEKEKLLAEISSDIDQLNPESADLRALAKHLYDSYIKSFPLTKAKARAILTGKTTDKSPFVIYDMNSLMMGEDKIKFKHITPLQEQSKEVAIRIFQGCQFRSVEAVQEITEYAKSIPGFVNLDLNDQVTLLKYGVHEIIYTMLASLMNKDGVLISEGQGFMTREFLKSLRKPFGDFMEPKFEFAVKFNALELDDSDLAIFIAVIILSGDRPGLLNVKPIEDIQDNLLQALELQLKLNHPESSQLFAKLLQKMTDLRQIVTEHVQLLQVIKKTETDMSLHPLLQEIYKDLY

EC50 [1] [nM] | Emax [1] [%] | SMILES | inhibition in vivo at 0.03 % in diet (KK mice) [%] | Glucose lowering rate (%) (KK mice)
 |  | Cn1c(COc2cccc(C(=O)O)c2)nc2ccc(Oc3cccnc3)cc21 [Compound A, reference compound] | 20 | 
180 | 73 | CCc1cccnc1Oc1ccc2nc(COc3cccc(C(=O)O)c3)n(C)c2c1 [Example 2, 3-({6-[(3-Ethylpyridin-2-yl)oxy]-1-methyl-1H-benzimidazol-2-yl}methoxy)benzoic acid] | 31 | 
 |  | Cc1ccc(Oc2ccc3nc(COc4cccc(C(=O)O)c4)n(C)c3c2)nc1C [Example 4, 3-({6-[(5,6-Dimethylpyridin-2-yl)oxy]-1-methyl-1H-benzimidazol-2-yl}methoxy)benzoic acid] |  | 28
24 | 79 | Cn1c(COc2cccc(C(=O)O)c2)nc2ccc(Oc3ncc(Cl)cc3F)cc21 [Example 5, 3-({6-[(5-Chloro-3-fluoropyridin-2-yl)oxy]-1-methyl-1H-benzimidazol-2-yl}methoxy)benzoic acid] | 34 | 
 |  | Cc1cc(F)cnc1Oc1ccc2nc(COc3cccc(C(=O)O)c3)n(C)c2c1 [Example 8, 3-({6-[(5-Fluoro-3-methylpyridin-2-yl)oxy]-1-methyl-1H-benzimidazol-2-yl}methoxy)benzoic acid] |  | 33
 |  | Cc1cnc(Oc2ccc3nc(COc4cccc(C(=O)O)c4)n(C)c3c2)c(F)c1 [Example 9, 3-({6-[(3-Fluoro-5-methylpyridin-2-yl)oxy]-1-methyl-1H-benzimidazol-2-yl}methoxy)benzoic acid] |  | 41
 |  | Cc1cnc(Oc2ccc3nc(COc4cccc(C(=O)O)c4)n(C)c3c2)c(C)c1 [Example 10, 3-({6-[(3,5-Dimethylpyridin-2-yl)oxy]-1-methyl-1H-benzimidazol-2-yl}methoxy)benzoic acid] |  | 37
 |  | Cc1cc(C)c(Oc2ccc3nc(COc4cccc(C(=O)O)c4)n(C)c3c2)nc1C [Example 15, 3-({1-Methyl-6-[(3,5,6-trimethylpyridin-2-yl)oxy]-1H-benzimidazol-2-yl}methoxy)benzoic acid] |  | 30
 |  | COc1cc(Oc2ccc3nc(COc4cccc(C(=O)O)c4)n(C)c3c2)ccn1 [Example 16, 3-({6-[(2-Methoxypyridin-4-yl)oxy]-1-methyl-1H-benzimidazol-2-yl}methoxy)benzoic acid] | 17 | 
 |  | COc1cc(Oc2ccc3nc(COc4cccc(C(=O)O)c4)n(C)c3c2)cc(C)n1 [Example 17, 3-({6-[(2-Methoxy-6-methylpyridin-4-yl)oxy]-1-methyl-1H-benzimidazol-2-yl}methoxy)benzoic acid] | 36 | 
